According to US7989667B2, “Processes for the crystallization of 2,2,4,4-tetramethylcyclobutanediol” (Eastman Chemical Company, priority 2008, dated 2011):

Experiments:
[1] = Solubility of cis- and trans-2,2,4,4-tetramethylcyclobutanediol in isobutyl isobutyrate (GC of saturated liquid phase); type: physicochemical
Procedure: All of the solubility data and concentrations of cis and trans TMCD were measured by gas chromotography (GC) using an Agilent 6890GC instrument. The instrument was equipped with a split-splitless injector and flame ionization detection. The column is a DB®-Wax, 30 meter×0.25 mm ID, 0.50 μm film thickness column. The cis/trans ratio of the compositions was calculated from the respective concentrations.
The charge concentration of the isomers is expressed as weight % relative to the saturated concentration of each isomer at a temperature of 62.6° C.
The charge concentration of the isomers is expressed as weight % relative to the saturated concentration of each isomer at a temperature of 62.6° C. The vessel was equipped with a 4-blade flat blade pitched impeller for solids suspension, and the jacket was used to control the temperature of the vessel contents. The vessel was equipped with charging and sampling ports on top and a valve at the base to drain the vessel contents.
The slurry was allowed to stand for one hour sufficient for the solids to saturate the solvent at 6.4° C. At that time, a sample of the solution was drawn from the cell using a fritted pipette so as to remove only the liquid phase. The sample was analyzed for cis and trans isomer content. These values represented the saturated concentration of each isomer at the sampling temperature.
The cell contents were heated to 10.2° C. and the contents were held for a further hour to allow the slurry to equilibrate. A sample was then taken of the solution and analyzed. Following this procedure, data was gathered to 62.6° C.

[2] = Meta-stable zone width in isobutyl isobutyrate (colorimeter transmission on cooling from 90 to 10 °C); type: physicochemical; conditions: for Limit of MZW / MZW (meta-stable zone width): isobutyl isobutyrate; for difference in onset of nucleation between repeated cool-downs: Experiments 3 and 4 of Table 2, same cooling rate 5 °C/hr; for Limit of Meta-Stable Zone Width: Table 1A, in isobutyl isobutyrate, data points shown in FIG. 7
From the text: The meta-stable zone width was estimated by charging 800 grams of a solution containing 100 relative weight % cis-2,2,4,4-tetramethylcyclobutanediol and 69 relative weight % trans-2,2,4,4-tetramethylcyclobutanediol in isobutyl isobutyrate solvent to a 1.2 L jacketed glass vessel. The vessel was equipped with a 4-blade flat blade pitched impeller for solids suspension, and the jacket was used to control the temperature of the vessel contents. The vessel was equipped with charging and sampling ports on top and a valve at the base to drain the vessel. The vessel contents were heated to 90° C., at which temperature both isomers were completely in solution.
All measurements to estimate the meta-stable zone width were made using a Beckmann Instruments PC 800 Colorimeter device. The device operated by transmitting a white light source into the solution which was reflected from a mirror at a distance of several millimeters from the source back to a detector in the probe. When no particles were present in suspension, most of the light was reflected back to the detector. If the solution was relatively transparent, some of the light was adsorbed by the solution and some was diffracted, but the majority was reflected. If crystals were present, a substantial quantity of the white light was adsorbed by the crystal mass and diffracted and less of the light was reflected back to the detector. In order to calibrate the instrument, a reference intensity was measured when no crystals were in suspension, and this was referred to as the 100% transmittance level.
The colorimeter was placed in the vessel such that the probe tip was submerged in the solution. The crystal free solution was cooled from 90° C. to 10° C. at a pre-determined cooling rate indicated in Table 2 and the magnitude of the transmission signal of the white light source monitored. When crystals appeared in solution, the white light source was blocked and the transmission/reflection decreased rapidly. Two distinct step changes in the transmission signal were observed indicating the nucleation of cis- and trans-2,2,4,4-tetramethylcyclobutanediol in suspension. FIG. 8 is a graph showing the solubility of cis-and trans-2,2,4,4-tetramethylcyclobutanediol in isobutyl isobutyrate and operating points for continuous crystallization.

[3] = Table 1A, in isobutyl isobutyrate, extrapolated from the data of FIG. 7
[4] = Table 2, solution in isobutyl isobutyrate used for MZW experiments 1-4
[5] = in isobutyl isobutyrate, 6.4 °C, wt % relative to saturated concentration of each isomer at 62.6 °C
[6] = in isobutyl isobutyrate, 10.2 °C, relative to saturated concentration at 62.6 °C
[7] = in isobutyl isobutyrate, 19 °C, relative to saturated concentration at 62.6 °C
[8] = in isobutyl isobutyrate, 26.2 °C, relative to saturated concentration at 62.6 °C
[9] = in isobutyl isobutyrate, 34.7 °C, relative to saturated concentration at 62.6 °C
[10] = in isobutyl isobutyrate, 39.6 °C, relative to saturated concentration at 62.6 °C
[11] = in isobutyl isobutyrate, 44.5 °C, relative to saturated concentration at 62.6 °C
[12] = in isobutyl isobutyrate, 51.6 °C, relative to saturated concentration at 62.6 °C
[13] = in isobutyl isobutyrate, 58.8 °C, relative to saturated concentration at 62.6 °C
[14] = in isobutyl isobutyrate, 62.6 °C (reference temperature)
[15] = Experiment 1, cooling rate 15 °C/hr
[16] = Experiment 2, cooling rate 10 °C/hr
[17] = Experiment 3, cooling rate 5 °C/hr
[18] = Experiment 4, cooling rate 5 °C/hr

Row | Compound | Saturated Temperature [1, 3] | Saturated Temperature [1, 4] | Solubility [1, 5] | Solubility [1, 6] | Solubility [1, 7] | Solubility [1, 8] | Solubility [1, 9] | Solubility [1, 10] | Solubility [1, 11] | Solubility [1, 12] | Solubility [1, 13] | Solubility [1, 14] | Limit of MZW [2, 15] | MZW (meta-stable zone width) [2, 15] | Limit of MZW [2, 16] | MZW (meta-stable zone width) [2, 16] | Limit of MZW [2, 17] | MZW (meta-stable zone width) [2, 17] | Limit of MZW [2, 18] | MZW (meta-stable zone width) [2, 18] | further results
1 | CC1(C)[C@H](O)C(C)(C)[C@@H]1O [Cis-2,2,4,4-tetramethylcyclobutanediol, cis-2,2,4,4-tetramethylcyclobutanediol] | 68 °C | 68 °C | 0 Relative wt % | 3 Relative wt % | 10 Relative wt % | 17 Relative wt % | 29 Relative wt % | 37 Relative wt % | 47 Relative wt % | 64 Relative wt % | 86 Relative wt % | 100 Relative wt % | 50.94 °C | 17.06 °C | 51.77 °C | 16.23 °C | 60.38 °C | 7.62 °C | 58.24 °C | 9.76 °C | difference in onset of nucleation between repeated cool-downs [2]: approximately 2 °C; Limit of Meta-Stable Zone Width [2]: 58.24 °C
2 | CC1(C)[C@H](O)C(C)(C)[C@H]1O [Trans-2,2,4,4-tetramethylcyclobutanediol, trans-2,2,4,4-tetramethylcyclobutanediol] | 57 °C | 57 °C | 1 Relative wt % | 3 Relative wt % | 10 Relative wt % | 19 Relative wt % | 32 Relative wt % | 41 Relative wt % | 52 Relative wt % | 69 Relative wt % | 89 Relative wt % | 100 Relative wt % | 48.67 °C | 8.33 °C | 49.29 °C | 7.71 °C | 50.34 °C | 6.66 °C | 50.36 °C | 6.64 °C | difference in onset of nucleation between repeated cool-downs [2]: 0.02 °C; Limit of Meta-Stable Zone Width [2]: 50.36 °C
